Several values for one entry are separate records, joined by “and”; a condition that tells them apart may be missing. Equal entries are not always repeated. Entries after “also recorded” stand apart in the source; their conditions may differ.
Assays:
AR pathway [1] = assay: PBMCs of sepsis patients treated in vitro 24 hours with inhibitors, pathway activity score; assay type: cell-based, human; set-up: AR Pathway activity scores of sepsis PBMC patients: scale not given here
Protocol: (§1) PBMC samples from healthy volunteers and sepsis patients were obtained via Tissue solutions. Briefly, cryopreserved PBMCs were first washed with washing buffer (PBS/1% BSA/2 mM EDTA), centrifuged and pellet resuspended in culture medium (RPM11640 without phenol red+8.5% charcoal stripped FBS+1% Glx+1% p/s). 0.5·10^5-1·10^6 cells were seeded per well in 24 wells plate and rested for 1 hour before treatment experiment. 10 PBMC samples from healthy donors were used to; (1) measure the baseline pathway levels, (2) activate with LPS
(§2) Sepsis treatment model: PBMC derived from sepsis patients (n=20) were treated 24 hours with compounds, DMSO or combination of compounds. (PBMC from healthy and sepsis patients are originating from the same hospital to minimize bias in sample prep). After stimulation cells were harvested and RNA was extracted using the RNeasy mini kit (Qiagen, 74104). qPCR was performed using the Philips Research OncoSignal platform.
(§3) In total 18 PBMCs sepsis samples were treated for 24 hours with selected inhibitors (and combinations), 6 patient samples per experiment.

TGFbeta pathway [2] = assay: as above; assay type: cell-based, human; set-up: scale not given here
Protocol: as §1, §2, §3

[3] = test system: TGFbeta signaling pathway; assay: THP-1 sepsis treatment model, qPCR-based STP activity score; assay type: cell-based; details: for Effect on TGFbeta PAS in LPS-stimulated THP-1 monocytes: THP-1 monocyte sepsis treatment model (Table 11); for Average TGFb STP activity score: 24 hours
Protocol: (§4) In the treatment model the pathway inhibitor and LPS were added at the same time and the THP-1 cells were incubated for 24 hours prior to isolating RNA and determining pathway activities.
(§5) For the first application, THP-1 cells were pre-incubated for 24 hours with the drug of choice, and subsequently LPS was added for 24 hours. For the treatment application, the drug and LPS were added simultaneously to the cells for 24 hours. Importantly: Some drugs needs processing in the body to become effective, this is the case for some of the androgen receptor (AR) pathway inhibitors, such as bicalutamide. In this case we have also tested the active variant of the drug (in the case of bicalutamide: (R-)bicalutamide).
(§6) LPS is considered the main mediator of the sepsis symptoms. An in vitro experiment was designed where monocytes were stimulated with LPS and subsequently treated with a variety of inhibitors. Monocytes were chosen as they have been described to play a major role in sepsis, see for example Sukhacheva, [34], Clinical Laboratory Int. 26 Aug.
(§7) Sepsis treatment model: For the treatment application, the drug and LPS were added simultaneously to the cells for 24 hours. Compounds and concentrations are described in Table 11 and Table 12 for healthy volunteer PBMCs.
(§8) After stimulation cells were harvested and RNA was extracted using the RNeasy mini kit (Qiagen, 74104). qPCR-based STP activity scores were calculated using the Philips Research OncoSignal platform (www.philips.com/oncosignal), as described herein.
(§9) Two concentrations of LPS 0.5 and 5 ng/ml were used in the experiments, furthermore for the THP-1 cell line an higher passage number (px-53-55) and a lower passage number (px-13-15) were used (Table 11). the THP-1 cell line with the lower passage was more reactive towards LPS activation compared to the higher passage number (data not shown).

AR signaling pathway = assay: as above; assay type: cell-based; details: for Effect on AR PAS in LPS-stimulated THP-1 monocytes: THP-1 monocyte sepsis treatment model (Table 11); for Average AR STP activity score: 24 hours
Protocol: as §4, §5, §6, §7, §8, §9

AR pathway [4] = assay: THP-1 cell line stimulated with LPS or DHT and inhibited with Bicalutamide or Enzalutamide (Table 9A); assay type: cell-based; details: THP-1, stimulated 5 hours and subsequently inhibited
Protocol: (§10) LPS is considered the main mediator of the sepsis symptoms. An in vitro experiment was designed where monocytes were stimulated with LPS and subsequently treated with a variety of inhibitors. […] 26 Aug.
as §8

TGFBeta pathway [5] = assay: as above; assay type: cell-based; details: THP-1, stimulated 5 hours and subsequently inhibited
Protocol: as §10, §8

AR pathway [6] = assay: MOLT-4 lymphoid cell line stimulated with LPS or DHT and inhibited with Bicalutamide or Enzalutamide (Table 9B); assay type: cell-based; details: stimulated 5 hours and subsequently inhibited
Protocol: (§11) MOLT-4 (ATCC CRL-1582) were cultured in RPMI1640 media, supplemented with 10% FBS, 1% glutamax and 1% pen strep at 37° C. 5% CO2.
as §8

TGFBeta pathway [7] = assay: as above; assay type: cell-based; details: MOLT-4, stimulated 5 hours and subsequently inhibited
Protocol: as §11, §8

AR pathway [8] = assay: PBMCs of healthy volunteers stimulated with LPS with or without drugs, pathway activity score; assay type: cell-based, human; details: for Healthy volunteers showing AR PAS decrease: experiment 2, PBMCs, LPS 0.5 ng/ml + drug, Etanercept: not significantly; for AR PAS: PBMCs of individual healthy volunteers
Protocol: as §7, §1
(§12) PBMCs of healthy volunteers were stimulated with 5 ng/ml LPS for 24 hours in combination with (R)-Bicalutamide and (R)-Bicalutamide+Vactosertib (experiment 1). In experiment 2, (R)-Bicalutamide and etanercept were tested with 0.5 ng/ml LPS (Table 12A for exp 1 and Table 12B for exp 2).

TGFbeta pathway [9] = assay: as above; assay type: cell-based, human; details: for Healthy volunteers showing TGFbeta PAS decrease: experiment 2, PBMCs, LPS 0.5 ng/ml + drug, Etanercept: not significantly; for TGFbeta PAS: PBMCs of individual healthy volunteers
Protocol: as §7, §1, §12

[10] = test system: AR cellular signaling pathway; assay: THP-1 sepsis prevention model, qPCR-based STP activity score; assay type: cell-based
[11] = test system: TGFbeta cellular signaling pathway; assay: as above; assay type: cell-based
[12] = EXP 2, individual patient samples, Resatorvid 10 uM, D4-abiraterone 10 uM, A-485 100 nM, Galunisertib 10 uM
[13] = THP-1 px 13-15, LPS 5 ng/ml alone or with Resatorvid 10 uM
[14] = DHT (25 nM) alone or + Bicalutamide (5 uM) or Enzalutamide (5 uM)
[15] = LPS (50 ng/mL) alone or + Bicalutamide (5 uM) or Enzalutamide (5 uM)
[16] = THP-1 px 53-55, LPS 0.5 ng/ml alone or with compound, (R)-Bicalutamide 25 uM, Ketodarolutamide 10 uM, D4-abiraterone 10 uM
[17] = EXP 1, individual patient samples, Vactosertib 1 uM, Vactosertib 1 uM + R-bicalutamide 25 uM, Etanercept 10 ug/ml, R-bicalutamide 25 uM
[18] = experiment 2, LPS 0.5 ng/ml alone, + Etanercept 10 ug/ml, or + (R)-Bicalutamide 25 uM
[19] = THP-1 px 13-15, LPS 0.5 ng/ml alone or with Etanercept 10 ug/ml
[20] = THP-1 px 13-15, LPS 0.5 ng/ml alone or with compound, Vactosertib 1 uM, Etanercept 1 ug/ml, R-bicalutamide 25 uM + Etanercept 0.1 ug/ml, R-bicalutamide 25 uM + Filgotinib 10 uM
[21] = THP-1 px 13-15, LPS 0.5 ng/ml alone or with compound, (R)-Bicalutamide 25 uM, N-desmethyl Enzalutamide 2 uM, N-Desmethyl-Apalutamide 3 uM
[22] = 24 hrs Vactosertib or DMSO, then 24 hrs LPS
[23] = 24 hrs Vactosertib, then 24 hrs PBS
[24] = experiment 1, PBMCs, LPS 5 ng/ml + drug
[25] = experiment 1, LPS 5 ng/ml 24 hours alone, + (R)-Bicalutamide 25 uM, or + (R)-Bicalutamide 25 uM + Vactosertib 1 uM

Cc1cccc(-c2nn3c(c2-c2ccnc4ccc(C(N)=O)cc24)CCC3)n1 [Galunisertib]
AR Pathway activity scores of sepsis PBMC patients (AR pathway [1]; [12]): 23

CCOC(=O)C1=CCCC[C@H]1S(=O)(=O)Nc1ccc(F)cc1Cl [Resatorvid]
AR Pathway activity scores of sepsis PBMC patients (AR pathway [1]; [12]): 24 and 31 | TGFbeta Pathway activity scores of sepsis PBMC patients (TGFbeta pathway [2]; [12]): 31 and 37 and 35 and 34 | Effect on TGFbeta PAS in LPS-stimulated THP-1 monocytes [3]: could lower; also recorded: could be lowered | Average TGFb STP activity score [3, 13]: 8.00 normalized scores | Effect on AR PAS in LPS-stimulated THP-1 monocytes (AR signaling pathway): could reduce; also recorded: could be lowered | Average AR STP activity score (AR signaling pathway; [13]): 3.67 normalized scores

CNC(=O)c1ccc(N2C(=S)N(c3ccc(C#N)c(C(F)(F)F)c3)C(=O)C2(C)C)cc1F [Enzalutamide]
AR STP activity (AR pathway [4]; [14]): 6.0 normalized scores | AR STP activity (AR pathway [4]; [15]): 20.4 normalized scores | TGFbeta STP activity (TGFBeta pathway [5]; [14]): 17.3 normalized scores | TGFbeta STP activity (TGFBeta pathway [5]; [15]): 33.6 normalized scores | AR STP activity (AR pathway [6]; [14]): 7.3 normalized scores | AR STP activity (AR pathway [6]; [15]): 6.3 normalized scores | TGFbeta STP activity (TGFBeta pathway [7]; [14]): 14.1 normalized scores | TGFbeta STP activity (TGFBeta pathway [7]; [15]): 14.1 normalized scores

CC(=O)c1cc(C(=O)N[C@@H](C)Cn2ccc(-c3ccc(C#N)c(Cl)c3)n2)[nH]n1 [Ketodarolutamide]
Average TGFb STP activity score [3, 16]: 12.00 normalized scores | Effect on AR PAS in LPS-stimulated THP-1 monocytes (AR signaling pathway): could reduce | Average AR STP activity score (AR signaling pathway; [16]): 2.33 normalized scores

Etanercept
AR Pathway activity scores of sepsis PBMC patients (AR pathway [1]; [17]): 28 and 20 | Healthy volunteers showing AR PAS decrease (AR pathway [8]): 2 out of 4 | AR PAS (AR pathway [8]; [18]): 21 and 31 (2×) and 18 | Healthy volunteers showing TGFbeta PAS decrease (TGFbeta pathway [9]): 3 out of 4 | TGFbeta PAS (TGFbeta pathway [9]; [18]): 29 and 34 and 31 (2×) | TGFbeta Pathway activity scores of sepsis PBMC patients (TGFbeta pathway [2]; [17]): 42 and 30 and 31 | Effect on TGFbeta PAS in LPS-stimulated THP-1 monocytes [3]: could lower; also recorded: could be lowered | Average TGFb STP activity score [3, 19]: 11.33 normalized scores | Average TGFb STP activity score [3, 20]: 9.67 normalized scores and 11.67 normalized scores | Effect on AR PAS in LPS-stimulated THP-1 monocytes (AR signaling pathway): could reduce; also recorded: could be lowered | Average AR STP activity score (AR signaling pathway; [19]): 6.33 normalized scores | Average AR STP activity score (AR signaling pathway; [20]): 5.00 normalized scores and 6.00 normalized scores

CC1(C)C(=O)N(c2ccc(C#N)c(C(F)(F)F)c2)C(=S)N1c1ccc(C(N)=O)c(F)c1 [N-desmethyl Enzalutamide]
Average TGFb STP activity score [3, 21]: 13.33 normalized scores | Effect on AR PAS in LPS-stimulated THP-1 monocytes (AR signaling pathway): could reduce | Average AR STP activity score (AR signaling pathway; [21]): 6.67 normalized scores

N#Cc1ncc(N2C(=O)C3(CCC3)N(c3ccc(C(N)=O)c(F)c3)C2=S)cc1C(F)(F)F [N-Desmethyl-Apalutamide]
Average TGFb STP activity score [3, 21]: 13.33 normalized scores | Effect on AR PAS in LPS-stimulated THP-1 monocytes (AR signaling pathway): could reduce | Average AR STP activity score (AR signaling pathway; [21]): 7.33 normalized scores

Cc1cccc(-c2[nH]c(CNc3ccccc3F)nc2-c2ccc3ncnn3c2)n1 [Vactosertib]
AR Pathway activity scores of sepsis PBMC patients (AR pathway [1]; [17]): 21 and 22 | Patients showing reduction in the AR pathway (not significant) (AR pathway [1]; sepsis patient PBMCs, Etanercept 10 ug/ml in combination): 2/3 | Average PAS AR [10, 22]: 17.1 normalized scores | Average PAS AR [10, 23]: 3.8 normalized scores | Effect on the AR signaling pathway ([10]; Vactosertib pretreatment followed by LPS): No effect | TGFbeta Pathway activity scores of sepsis PBMC patients (TGFbeta pathway [2]; [17]): 31 | Average TGFb STP activity score [3, 20]: 12.00 normalized scores | Average AR STP activity score (AR signaling pathway; [20]): 8.67 normalized scores | Average PAS TGFbeta [11, 22]: 9.3 normalized scores | Average PAS TGFbeta [11, 23]: 1.7 normalized scores

O=C(Nc1nc2cccc(-c3ccc(CN4CCS(=O)(=O)CC4)cc3)n2n1)C1CC1 [Filgotinib]
Effect on TGFbeta PAS in LPS-stimulated THP-1 monocytes [3]: could lower

C[C@]12CCC(=O)C=C1CC[C@@H]1[C@@H]2CC[C@]2(C)C(c3cccnc3)=CC[C@@H]12 [D4-abiraterone]
AR Pathway activity scores of sepsis PBMC patients (AR pathway [1]; [12]): 24 (3×) and 33 | TGFbeta Pathway activity scores of sepsis PBMC patients (TGFbeta pathway [2]; [12]): 32 and 41 and 36 and 40 | Effect on TGFbeta PAS in LPS-stimulated THP-1 monocytes [3]: could lower | Average TGFb STP activity score [3, 16]: 11.67 normalized scores | Effect on AR PAS in LPS-stimulated THP-1 monocytes (AR signaling pathway): could reduce | Average AR STP activity score (AR signaling pathway; [16]): 2.67 normalized scores

C[C@](O)(CS(=O)(=O)c1ccc(F)cc1)C(=O)Nc1ccc(C#N)c(C(F)(F)F)c1 [(R)-Bicalutamide]
AR Pathway activity scores of sepsis PBMC patients (AR pathway [1]; [17]): 21 | Healthy volunteers showing AR decrease (AR pathway [8]; [24]): 3 out of 6 | AR PAS (AR pathway [8]; [25]): 29 and 26 (2×) and 30 and 25 and 21 | Healthy volunteers showing AR PAS decrease (AR pathway [8]): 3 out of 4 | AR PAS (AR pathway [8]; [18]): 26 and 28 and 30 and 24 | Healthy volunteers showing TGFbeta decrease (TGFbeta pathway [9]; [24]): 3 out of 6 | TGFbeta PAS (TGFbeta pathway [9]; [25]): 29 and 32 and 35 and 31 and 27 and 40 | Healthy volunteers showing TGFbeta PAS decrease (TGFbeta pathway [9]): 3 out of 4 | TGFbeta PAS (TGFbeta pathway [9]; [18]): 31 and 35 and 33 and 32 | TGFbeta Pathway activity scores of sepsis PBMC patients (TGFbeta pathway [2]; [17]): 31 and 32 | Effect on TGFbeta PAS in LPS-stimulated THP-1 monocytes [3]: could lower | Average TGFb STP activity score [3, 21]: 14.00 normalized scores | Average TGFb STP activity score [3, 16]: 11.67 normalized scores | Effect on AR PAS in LPS-stimulated THP-1 monocytes (AR signaling pathway): could reduce | Average AR STP activity score (AR signaling pathway; [21]): 6.67 normalized scores | Average AR STP activity score (AR signaling pathway; [16]): 1.67 normalized scores
